Reference: patent publication US20090093470A1, “PHOTODYNAMIC THERAPY PROCESS AND PHOTOSENSITIZER COMPOSITIONS THEREFOR” (Ondine International, Ltd., priority 2007, published 2009)

Test system: E. Coli (ATCC 25922)
Assay: Photodynamic disinfection kill models (planktonic culture and biofilm)
Format: cell-based
Settings: 670 nm laser illumination for 60 seconds
Protocol: A 0.01% (v/v) aqueous solution of methylene blue was reduced substantially entirely to the reduced state using ascorbic acid. […] The formulation was then tested for antibacterial efficacy against E. Coli (ATCC® 25922™) using two established photodynamic disinfection kill models (planktonic culture and biofilm) with a 670 nm laser energy source to provide desired illumination for 60 seconds. […] FIG. 2 is a bar graph showing the eradication of E. coli expressed in log^10 reduction in bacterial counts for the various samples used in the experiment. […]

O=C1O[C@H]([C@@H](O)CO)C(O)=C1O [ascorbic acid]
reduction in bacterial counts (viable count) of E. coli: did not itself demonstrate any antibacterial effects
